Molecular target: Carbonic anhydrase 9 (Homo sapiens, UniProt Q16790)
Assay: Inhibition of human transmembrane carbonic anhydrase 9 preincubated for 15 mins by stopped flow CO2 hydration assay

SMILES	Ki [nM]
NS(=O)(=O)c1ccc(Nc2nc(N3CCOCC3)nc(N3CCOCC3)n2)cc1	34.1
CC(C)(C)Nc1nc(Nc2ccc(S(N)(=O)=O)cc2)nc(NC(C)(C)C)n1	19.3
NCCCNc1nc(NCCCN)nc(Nc2ccc(S(N)(=O)=O)cc2)n1	18.3
Nc1cccnc1Nc1ccc(S(N)(=O)=O)cc1	10.7
NCCCNc1nc(Cl)nc(Nc2ccc(S(N)(=O)=O)cc2)n1	21.4
NS(=O)(=O)c1ccc(Nc2nc(Cl)nc(Nc3ccc(F)c(Cl)c3)n2)cc1	21.2

Stronger by Ki, values ahead:

Ki [nM]	SMILES
10.2	Cc1cccc(Nc2nc(Nc3ccc(S(N)(=O)=O)cc3)nc(N3CCOCC3)n2)c1
2.4	Nc1nc(N)nc(Nc2ccc(S(N)(=O)=O)cc2)n1
5.9	CN(CCO)c1nc(Nc2ccc(S(N)(=O)=O)cc2)nc(N(C)CCO)n1
8.5	COc1ccc(Nc2ccc(S(N)(=O)=O)cc2)nn1
5.9	NS(=O)(=O)c1ccc(Nc2nc(Cl)nc(Nc3ccccc3)n2)cc1
1.2	CN(CCO)c1nc(Cl)nc(Nc2ccc(S(N)(=O)=O)cc2)n1
